# Source: the Kinase Knowledgebase extract (Sharma et al. 2016)
# Target: MAPK14 (UniProt Q16539)
# Assay: p38 Inhibition
# Conditions: not given
# Sequence of MAPK14 (Q16539 whole entry, looked up): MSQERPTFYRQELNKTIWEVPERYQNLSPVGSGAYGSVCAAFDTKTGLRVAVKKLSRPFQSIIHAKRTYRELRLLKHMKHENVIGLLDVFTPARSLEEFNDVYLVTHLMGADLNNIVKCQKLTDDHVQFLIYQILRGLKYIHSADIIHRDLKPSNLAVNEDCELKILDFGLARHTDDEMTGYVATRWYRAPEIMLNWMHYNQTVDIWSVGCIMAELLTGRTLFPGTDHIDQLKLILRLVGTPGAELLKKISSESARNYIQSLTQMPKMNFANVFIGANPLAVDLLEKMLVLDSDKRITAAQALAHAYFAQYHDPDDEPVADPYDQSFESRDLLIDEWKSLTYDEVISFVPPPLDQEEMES
row,IC50 [µM],Structure (SMILES)
1,0.035,O=c1c(-c2ccncc2)c(-c2ccc(F)cc2)[nH]n1-c1ccc(Cl)cc1
2,> 30,O=C(CCCNc1ncc(C(F)(F)F)cc1Cl)NNS(=O)(=O)c1ccc(CNC(=O)c2cccc(O)c2)s1
3,> 30,O=C(CNS(=O)(=O)c1ccc(CNC(=O)c2ccc(Cl)cc2)s1)Nc1cccc(S(=O)(=O)C(F)(F)F)c1
4,> 17,Cc1cc(-c2c(-c3ccc(F)cc3)ncn2CCCN2CCOCC2)cc(C)n1
5,> 17,Cc1cc(-c2c(-c3ccc(F)cc3)ncn2CCCN2CCOCC2)nc(N)n1
6,> 30,O=C(CCCNc1ncc(C(F)(F)F)cc1Cl)NNS(=O)(=O)c1ccc(CNC(=O)c2cccc([N+](=O)[O-])c2)s1

# Same assay, conditions: concentration not given here
row,inhibition [%],Structure (SMILES)
1,43,O=c1c(-c2ccc(F)cc2)c(-c2ccncc2)[nH]n1-c1ccc(Cl)cc1
2,0,Cc1[nH]c(=O)c2c(ccc3nc(Nc4c(Cl)cccc4Cl)[nH]c32)c1C

# Target: CDK2 (UniProt P24941)
# Assay: Enzyme Assay
# Conditions: not given
row,IC50 [nM],Structure (SMILES)
1,3,NS(=O)(=O)c1ccc(Nc2nccc(-c3cnc4ccccn34)n2)cc1

# Target: CDK2 (human) (UniProt P24941)
# Assay: Enzyme Assay
# Conditions: not given
row,IC50 [nM],Structure (SMILES)
1,2000,O=C1NCCc2c1[nH]c1ccc(Br)cc21

# Target: PIK3CA (human) (UniProt P42336)
# Sequence (P42336 whole entry, looked up): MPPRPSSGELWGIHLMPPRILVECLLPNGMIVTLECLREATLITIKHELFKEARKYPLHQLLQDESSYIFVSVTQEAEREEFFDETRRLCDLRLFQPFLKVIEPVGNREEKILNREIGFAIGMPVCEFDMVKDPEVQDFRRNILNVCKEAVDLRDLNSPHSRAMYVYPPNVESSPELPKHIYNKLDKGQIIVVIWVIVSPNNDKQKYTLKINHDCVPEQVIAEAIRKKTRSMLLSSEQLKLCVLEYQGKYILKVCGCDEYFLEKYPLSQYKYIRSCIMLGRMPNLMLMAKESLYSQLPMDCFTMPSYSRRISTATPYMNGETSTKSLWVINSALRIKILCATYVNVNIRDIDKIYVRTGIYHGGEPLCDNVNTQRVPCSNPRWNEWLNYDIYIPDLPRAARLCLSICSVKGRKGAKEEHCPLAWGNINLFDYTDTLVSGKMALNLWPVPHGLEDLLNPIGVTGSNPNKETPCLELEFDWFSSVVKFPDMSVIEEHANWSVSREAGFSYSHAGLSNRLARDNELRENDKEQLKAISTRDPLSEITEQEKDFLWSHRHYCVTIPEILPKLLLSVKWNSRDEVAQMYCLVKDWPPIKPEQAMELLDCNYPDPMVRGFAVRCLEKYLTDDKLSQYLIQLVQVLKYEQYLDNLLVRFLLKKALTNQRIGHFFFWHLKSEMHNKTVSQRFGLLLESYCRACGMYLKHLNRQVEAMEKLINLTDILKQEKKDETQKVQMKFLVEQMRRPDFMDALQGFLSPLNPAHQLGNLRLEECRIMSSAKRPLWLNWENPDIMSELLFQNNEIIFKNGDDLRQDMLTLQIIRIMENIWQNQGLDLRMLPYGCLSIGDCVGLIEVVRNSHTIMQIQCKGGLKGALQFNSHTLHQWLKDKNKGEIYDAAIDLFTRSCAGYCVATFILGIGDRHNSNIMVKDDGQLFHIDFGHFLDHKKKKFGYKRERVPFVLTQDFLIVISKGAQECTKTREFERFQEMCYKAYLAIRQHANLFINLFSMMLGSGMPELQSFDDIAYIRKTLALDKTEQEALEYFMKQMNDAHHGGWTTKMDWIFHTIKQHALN
# Assay: Enzyme Assay
# Conditions: not given
row,IC50 [nM],Structure (SMILES)
1,5800,O=C(Nc1cccc(CO)c1)Nc1cccc(-c2nc(N3CCOCC3)c3ncccc3n2)c1
2,71,Cn1c(=O)n(-c2ccc(C(C)(C)C#N)cc2)c2c3cc(C#Cc4cccnc4)ccc3ncc21

# Target: PIK3CD (Human) (UniProt O00329)
# Assay: Enzyme Assay
# Conditions: not given
row,IC50 [nM],Structure (SMILES)
1,836,O=C(Nc1cccc(CO)c1)Nc1cccc(-c2nc(N3CCOCC3)c3ncccc3n2)c1
2,35,Cn1c(=O)n(-c2ccc(C(C)(C)C#N)cc2)c2c3cc(C#Cc4cccnc4)ccc3ncc21
3,186,Oc1cccc(-c2nc(N3CCOCC3)nc3cccnc23)c1

# Target: PIK3CG (human) (UniProt P48736)
# Sequence (P48736 whole entry, looked up): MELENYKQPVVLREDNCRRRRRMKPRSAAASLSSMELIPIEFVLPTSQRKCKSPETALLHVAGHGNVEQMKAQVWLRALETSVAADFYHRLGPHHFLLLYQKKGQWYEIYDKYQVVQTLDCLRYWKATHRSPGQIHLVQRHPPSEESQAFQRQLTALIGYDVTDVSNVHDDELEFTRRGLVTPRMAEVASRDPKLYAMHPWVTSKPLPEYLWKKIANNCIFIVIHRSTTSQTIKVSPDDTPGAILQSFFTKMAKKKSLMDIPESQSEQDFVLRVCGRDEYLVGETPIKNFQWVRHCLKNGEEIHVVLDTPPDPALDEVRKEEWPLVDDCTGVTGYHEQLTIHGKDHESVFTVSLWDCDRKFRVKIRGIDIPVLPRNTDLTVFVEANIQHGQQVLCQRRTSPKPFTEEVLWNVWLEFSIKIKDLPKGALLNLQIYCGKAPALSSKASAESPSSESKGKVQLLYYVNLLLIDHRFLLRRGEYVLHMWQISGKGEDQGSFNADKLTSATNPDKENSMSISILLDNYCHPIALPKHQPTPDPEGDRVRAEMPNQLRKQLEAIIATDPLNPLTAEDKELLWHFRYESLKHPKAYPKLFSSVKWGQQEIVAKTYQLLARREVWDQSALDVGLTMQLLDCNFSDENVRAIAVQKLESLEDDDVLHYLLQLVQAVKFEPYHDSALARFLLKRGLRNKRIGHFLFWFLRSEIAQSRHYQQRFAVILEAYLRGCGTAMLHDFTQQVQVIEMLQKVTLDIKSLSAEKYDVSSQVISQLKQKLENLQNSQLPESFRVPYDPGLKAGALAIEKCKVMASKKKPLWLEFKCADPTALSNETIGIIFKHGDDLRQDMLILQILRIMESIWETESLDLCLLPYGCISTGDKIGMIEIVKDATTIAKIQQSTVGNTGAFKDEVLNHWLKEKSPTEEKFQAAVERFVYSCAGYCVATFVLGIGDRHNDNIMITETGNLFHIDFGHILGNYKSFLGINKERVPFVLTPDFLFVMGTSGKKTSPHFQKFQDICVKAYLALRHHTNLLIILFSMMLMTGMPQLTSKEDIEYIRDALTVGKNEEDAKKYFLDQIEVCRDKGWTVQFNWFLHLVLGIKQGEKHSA
# Assay: Enzyme Assay
# Conditions: not given
IC50 [nM],Kd [nM],Structure (SMILES),Ki [nM]
22000,,O=C(Nc1cccc(CO)c1)Nc1cccc(-c2nc(N3CCOCC3)c3ncccc3n2)c1,
350,,Cn1c(=O)n(-c2ccc(C(C)(C)C#N)cc2)c2c3cc(C#Cc4cccnc4)ccc3ncc21,
,,COc1ncc(-c2ccc3nccc(-c4ccnnc4)c3c2)cc1NS(=O)(=O)c1ccc(F)cc1F,0.06
1060,,Oc1cccc(-c2nc(N3CCOCC3)nc3cccnc23)c1,
,48,CC(C)CCN1c2nc(Nc3cc(F)c(O)c(F)c3)ncc2N(C)C(=O)[C@H]1C,
< 100,,Nc1nc2cc(-c3nn(C4CCOCC4)c4ncnc(N)c34)ccc2o1,

# Target: MAPK14 (murine)
# Assay: Inhibition of MAPK14 Kinase Activity
# Conditions: not given
row,IC50 [nM],Structure (SMILES)
1,93,O=c1ccn2cc(Cc3ccc(F)cc3F)ccc2c1-c1c(F)cccc1F
2,14,COc1ccc(CCN2CCN(C)CC2)cc1-c1n[nH]c2nc(Nc3ccc(F)cc3F)ncc12
3,100,O=C1NCc2cc(NS(=O)(=O)c3cc(Cl)ccc3Cl)ccc2N1c1c(Cl)cccc1Cl
4,22,COc1ccc(C(=O)N2CCCC2)cc1-c1c(=O)ccn2nc(Oc3ccc(F)cc3F)ccc12
5,14,Cc1cc(OCCCN2CCOCC2)cc(C)c1N1C(=O)NCc2cc(NS(=O)(=O)c3ccc(F)c(Cl)c3)ccc21
6,710,O=c1ccn2nc(NCc3ccc(F)cc3F)ccc2c1-c1c(F)cccc1F
7,59,CCc1ccc(C(=O)N2CCCC2)cc1-c1c(=O)ccn2nc(Oc3ccc(F)cc3F)ccc12
8,11,COc1ccc(CCN(C)C)cc1-c1n[nH]c2nc(Nc3ccc(F)cc3F)ncc12
9,5800,Fc1ccc(Nc2ccc3c(-c4ccccc4Cl)ncnc3n2)c(F)c1
10,320,O=c1ccn2cc(Sc3ccc(F)cc3F)ccc2c1-c1c(F)cccc1F

# Target: CDK2 (human) (UniProt P24941)
# Assay: Cell-Based Assay
# Conditions: a 549
row,IC50 [µM],Structure (SMILES)
1,6.1,C[C@@H](Nc1nc(N[C@H]2CC[C@H](N)CC2)nc2c1ncn2C1CCCC1)c1ccccc1

# Same assay, conditions: a2780
row,IC50 [µM],Structure (SMILES)
1,> 20,COc1cccc(CC(=O)Nc2cc(C3CC3)[nH]n2)c1
2,> 20,O=C(Cc1ccc(-c2ccc(C(=O)O)cc2)cc1)Nc1cc(C2CC2)[nH]n1

# Same assay, conditions: dms-114
row,IC50 [µM],Structure (SMILES)
1,6.6,C[C@@H](Nc1nc(N[C@H]2CC[C@H](N)CC2)nc2c1ncn2C1CCCC1)c1ccccc1

# Same assay, conditions: du-145
row,IC50 [µM],Structure (SMILES)
1,5.6,C[C@@H](Nc1nc(N[C@H]2CC[C@H](N)CC2)nc2c1ncn2C1CCCC1)c1ccccc1

# Same assay, conditions: hela
row,IC50 [µM],Structure (SMILES)
1,3,O=C1NCCc2c1[nH]c1ccc(Br)cc21

# Same assay, conditions: ht-29
row,IC50 [µM],Structure (SMILES)
1,5.7,C[C@@H](Nc1nc(N[C@H]2CC[C@H](N)CC2)nc2c1ncn2C1CCCC1)c1ccccc1

# Same assay, conditions: mcf-7
row,IC50 [µM],Structure (SMILES)
1,0.43,CN(C)CCCNS(=O)(=O)c1ccc(Nc2nccc(-c3cnc4cccnn34)n2)cc1
2,> 5,COCCN(C)S(=O)(=O)c1ccc(Nc2nccc(-c3cnc4cccnn34)n2)cc1
3,0.26,NS(=O)(=O)c1ccc(Nc2nccc(-c3cnc4ccccn34)n2)cc1
4,0.23,COCCNS(=O)(=O)c1ccc(Nc2nccc(-c3c(C)nc4cccnn34)n2)cc1
5,3.3,C[C@@H](Nc1nc(N[C@H]2CC[C@H](N)CC2)nc2c1ncn2C1CCCC1)c1ccccc1

# Same assay, conditions: mda-mb-231
row,IC50 [µM],Structure (SMILES)
1,5.2,C[C@@H](Nc1nc(N[C@H]2CC[C@H](N)CC2)nc2c1ncn2C1CCCC1)c1ccccc1

# Same assay, conditions: pc-3
row,IC50 [µM],Structure (SMILES)
1,3.9,C[C@@H](Nc1nc(N[C@H]2CC[C@H](N)CC2)nc2c1ncn2C1CCCC1)c1ccccc1

# Same assay, conditions: rko
row,IC50 [µM],Structure (SMILES)
1,0.1,NCCSc1cc(-c2ccc[nH]2)c2c3c(ccc(F)c13)NC2=O

# Target: PIK3CB;PIK3CG;PIK3CD;PIK3CA (human) (UniProt P48736)
# Assay: Inhibition of PIK3 Kinase Activity
# Conditions: not given
row,IC50 [nM],Structure (SMILES)
1,1000,O=C(NCc1ccncc1)C1CCN(c2cc(N3CCOCC3)nc(-c3cccc(CO)c3)n2)CC1
2,500,O=C(N1CC=C(c2cc(N3CCOCC3)nc(-c3cccc(CO)c3)n2)CC1)N1CCNCC1
3,1000,O=C(NC1CCNCC1)C1CCN(c2cc(N3CCOCC3)nc(-c3cccc(CO)c3)n2)CC1
4,500,Cn1ccnc1C(=O)N1CCN(c2cc(N3CCOCC3)nc(-c3cccc(CO)c3)n2)CC1
5,500,CS(=O)(=O)N1CC=C(c2cc(N3CCOCC3)nc(-c3cccc(CO)c3)n2)CC1
6,500,O=C(CCc1cccnc1)N1CCN(c2cc(N3CCOCC3)nc(-c3cccc(CO)c3)n2)CC1
7,1000,CC(C)C(=O)N1CC=C(c2cc(N3CCOCC3)nc(-c3cccc(CO)c3)n2)CC1
8,1000,O=C(C1COCCN1)N1CC=C(c2cc(N3CCOCC3)nc(-c3cccc(CO)c3)n2)CC1 (configuration not stated)
9,300,CC(=O)N1CCN(c2cc(N3CCOCC3)nc(-c3cccc(CO)c3)n2)CC1
10,1000,O=C(C1CNCCO1)N1CCN(c2cc(N3CCOCC3)nc(-c3cccc(CO)c3)n2)CC1 (configuration not stated)
11,1500,O=C(C1CCN(c2cc(N3CCOCC3)nc(-c3cccc(CO)c3)n2)CC1)N1CCOCC1

# Target: ROCK2 (human) (UniProt O75116)
# Sequence (O75116 whole entry, looked up): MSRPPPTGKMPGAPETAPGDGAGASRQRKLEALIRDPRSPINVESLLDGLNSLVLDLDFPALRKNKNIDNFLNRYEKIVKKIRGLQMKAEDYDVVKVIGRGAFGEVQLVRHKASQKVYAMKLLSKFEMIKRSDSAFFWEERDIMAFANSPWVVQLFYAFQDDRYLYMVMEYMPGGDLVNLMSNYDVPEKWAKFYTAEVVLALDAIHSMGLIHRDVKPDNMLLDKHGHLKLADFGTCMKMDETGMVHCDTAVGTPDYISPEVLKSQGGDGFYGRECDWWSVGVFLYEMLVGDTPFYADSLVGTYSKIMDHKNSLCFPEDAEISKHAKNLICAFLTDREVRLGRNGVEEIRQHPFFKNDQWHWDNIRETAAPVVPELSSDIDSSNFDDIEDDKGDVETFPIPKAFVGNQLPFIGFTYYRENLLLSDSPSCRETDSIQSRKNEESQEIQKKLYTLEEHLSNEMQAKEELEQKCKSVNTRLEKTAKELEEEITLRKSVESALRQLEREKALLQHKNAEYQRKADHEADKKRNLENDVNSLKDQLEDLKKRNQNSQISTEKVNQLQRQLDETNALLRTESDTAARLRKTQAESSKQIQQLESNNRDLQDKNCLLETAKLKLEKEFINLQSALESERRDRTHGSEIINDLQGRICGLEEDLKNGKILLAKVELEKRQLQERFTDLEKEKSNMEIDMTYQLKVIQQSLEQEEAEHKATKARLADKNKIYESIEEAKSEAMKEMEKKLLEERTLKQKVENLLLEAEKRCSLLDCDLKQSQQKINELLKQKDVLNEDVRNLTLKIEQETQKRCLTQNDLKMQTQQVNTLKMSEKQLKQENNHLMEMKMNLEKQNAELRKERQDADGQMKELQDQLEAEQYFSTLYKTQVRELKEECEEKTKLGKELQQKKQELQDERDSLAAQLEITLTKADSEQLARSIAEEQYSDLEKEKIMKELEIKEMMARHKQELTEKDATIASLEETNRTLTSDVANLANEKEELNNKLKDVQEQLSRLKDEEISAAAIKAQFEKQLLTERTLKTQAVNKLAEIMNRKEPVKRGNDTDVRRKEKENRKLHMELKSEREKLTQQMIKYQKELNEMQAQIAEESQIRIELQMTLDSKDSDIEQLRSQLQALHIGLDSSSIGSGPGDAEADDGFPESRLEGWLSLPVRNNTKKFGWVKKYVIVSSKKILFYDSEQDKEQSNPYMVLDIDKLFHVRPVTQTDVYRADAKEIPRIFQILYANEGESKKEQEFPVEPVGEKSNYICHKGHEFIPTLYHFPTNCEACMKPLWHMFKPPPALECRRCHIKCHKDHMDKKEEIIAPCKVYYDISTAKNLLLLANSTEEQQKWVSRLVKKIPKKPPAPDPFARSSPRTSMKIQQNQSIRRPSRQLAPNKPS
# Assay: Assessment of ROCK2 Kinase Activity
# Conditions: not given
row,IC50 [nM],Structure (SMILES)
1,400,CC1CN(c2ccnc(N)n2)c2ccc([N+](=O)[O-])cc21 (configuration not stated)
2,4,Nc1nc(Nc2ccc(Oc3ccnc4[nH]cc(Cl)c34)c(F)c2)cc(C(F)(F)F)n1
3,200,CC1CN(c2ccnc(N)n2)c2ccc(F)cc21 (configuration not stated)
4,70,COc1cccc(CNC(=O)c2cccc3c2ccn3-c2ccnc(N)n2)c1
5,6700,CCC(C)=O.c1n[nH]cc1-c1cnc2ccc(N3CCCNCC3)nn12
6,60,C[C@@H](NC(=O)c1cccc2c1ccn2-c1ccnc(N)n1)c1ccccc1
7,71000,Clc1cnc2ccc(NCCCN3CCOCC3)nn12
8,2,N#Cc1c[nH]c2nccc(Oc3ccc(Nc4cc(C(F)(F)F)nc(N)n4)cc3F)c12
9,500,CC1CN(c2ccnc(N)n2)c2ccc(Cl)cc21 (configuration not stated)

# Target: PIK3CG (human) (UniProt P48736)
# Assay: Assessment of PIK3CG Kinase Activity
# Conditions: not given
row,IC50 [µM],Structure (SMILES)
1,> 20,CC(=O)Nc1nc2ccc(-c3cccc(-c4nc(C)no4)c3)cn2n1

# Target: PIK3CD (Human) (UniProt O00329)
# Assay: Assessment of PIK3CD Kinase Activity
# Conditions: not given
row,IC50 [µM],Structure (SMILES)
1,> 100,CC(=O)Nc1nc2ccc(-c3cccc(-c4nc(C)no4)c3)cn2n1

# Target: PIK3CA (human) (UniProt P42336)
# Assay: Assessment of Growth Inhibition of U937 Cells
# Conditions: not given
row,IC50 [µM],Structure (SMILES)
1,> 30,NCCN1C(=O)SC(=CCCc2ccc(S(N)(=O)=O)cc2)C1=O
2,> 30,NCCN1C(=O)c2ccc(Cc3ccccc3)cc2C1=O
3,> 30,NCCN1C(=O)SC(=CCCc2cccnc2)C1=O
4,> 30,O=C1SC(=CCCc2ccccc2)C(=O)N1CN1CCOCC1
5,> 30,NCCN1C(=O)SC(=CCCc2ccc([N+](=O)[O-])cc2)C1=O
6,> 30,O=C(O)N1C(=O)SC(=CCCc2ccccc2)C1=O
7,> 30,CS(=O)(=O)Nc1ccc(CCC=C2SC(=O)N(CCN)C2=O)cc1
8,> 30,NCCN1C(=O)SC(CCCc2ccccc2)C1=O (configuration not stated)
9,> 30,CCCC=C1SC(=O)N(CCN)C1=O

# Target: EGFR (UniProt P00533)
# Assay: not given
# Conditions: not given
row,IC50 [µM],Structure (SMILES)
1,> 400,CC1=CCC[C@H]2[C@](C)(CC3=C(O)C(=O)C=C(N[C@H](C(=O)O)[C@@H](C)O)C3=O)[C@@H](C)CC[C@]12C

# Target: EGFR (human) (UniProt P00533)
# Sequence (P00533 whole entry, looked up): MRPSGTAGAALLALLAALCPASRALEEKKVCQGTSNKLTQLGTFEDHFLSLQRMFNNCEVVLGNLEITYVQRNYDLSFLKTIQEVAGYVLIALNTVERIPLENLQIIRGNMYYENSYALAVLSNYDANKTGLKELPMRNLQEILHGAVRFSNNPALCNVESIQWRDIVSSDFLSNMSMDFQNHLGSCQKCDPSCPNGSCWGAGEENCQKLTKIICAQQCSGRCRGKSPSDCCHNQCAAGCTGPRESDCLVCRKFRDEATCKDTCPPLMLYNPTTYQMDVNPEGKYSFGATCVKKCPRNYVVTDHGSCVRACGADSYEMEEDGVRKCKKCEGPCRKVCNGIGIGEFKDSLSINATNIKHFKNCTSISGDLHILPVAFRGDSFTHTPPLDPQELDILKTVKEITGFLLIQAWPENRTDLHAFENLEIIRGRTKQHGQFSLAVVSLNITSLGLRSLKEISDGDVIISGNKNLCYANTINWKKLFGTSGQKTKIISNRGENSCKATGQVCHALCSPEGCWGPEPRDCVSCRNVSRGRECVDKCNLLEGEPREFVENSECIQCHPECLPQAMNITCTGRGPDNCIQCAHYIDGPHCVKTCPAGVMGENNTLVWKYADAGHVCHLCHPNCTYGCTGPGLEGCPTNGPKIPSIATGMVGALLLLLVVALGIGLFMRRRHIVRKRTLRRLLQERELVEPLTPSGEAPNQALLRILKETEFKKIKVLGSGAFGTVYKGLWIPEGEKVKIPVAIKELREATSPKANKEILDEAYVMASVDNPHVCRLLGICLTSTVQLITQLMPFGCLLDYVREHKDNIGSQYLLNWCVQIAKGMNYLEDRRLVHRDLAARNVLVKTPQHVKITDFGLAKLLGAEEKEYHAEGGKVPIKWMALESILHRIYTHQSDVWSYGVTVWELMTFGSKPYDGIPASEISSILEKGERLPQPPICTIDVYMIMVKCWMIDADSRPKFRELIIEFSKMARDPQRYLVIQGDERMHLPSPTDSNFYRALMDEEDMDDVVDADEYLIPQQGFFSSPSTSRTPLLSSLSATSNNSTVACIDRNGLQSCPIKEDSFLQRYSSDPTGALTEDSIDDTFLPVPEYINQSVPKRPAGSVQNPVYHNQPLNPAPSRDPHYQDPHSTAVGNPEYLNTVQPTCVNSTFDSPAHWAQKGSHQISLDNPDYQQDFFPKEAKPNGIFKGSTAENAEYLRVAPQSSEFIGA
# Assay: not given
# Conditions: not given
row,IC50 [nM],Structure (SMILES)
1,≤ 1000,COc1cc2ncnc(NS(=O)(=O)c3ccc(Br)cc3)c2cc1OC
2,≤ 1000,COc1cc2ncnc(NS(=O)(=O)c3cccc(Cl)c3)c2cc1OC
3,≤ 1000,COc1cc2ncnc(NS(=O)(=O)c3ccc(Cl)cc3)c2cc1OC
4,≤ 1000,COc1cc2ncnc(NS(=O)(=O)c3ccccc3Cl)c2cc1OC
5,≤ 1000,COc1cc2ncnc(NS(=O)(=O)c3ccccc3C#N)c2cc1OC
6,≤ 1000,COc1cc2ncnc(NS(=O)(=O)c3ccccc3I)c2cc1OC
7,≤ 1000,COc1ccc(S(=O)(=O)Nc2ncnc3cc(OC)c(OC)cc23)cc1
8,≤ 1000,COc1cc2ncnc(NS(=O)(=O)c3ccccc3Br)c2cc1OC
9,≤ 1000,COc1cc2ncnc(NS(=O)(=O)c3ccc(C)cc3)c2cc1OC
